This note sets out measurements from PubChem BioAssay AID330 (DTP/NCI, 2004).

Where “and” joins values, the source holds several entries; their conditions need not be identical. Identical values can stand only once. Inconclusive results and toxic doses are left out.

The test relates to P388 leukemia ip, CD2F1 mice, survival T/C. Nature of the test: NCI In Vivo Anticancer Drug Screen. Data for tumor model P388 Leukemia (intraperitoneal) in CD2F1 (CDF1) mice. Particulars: endpoint: median survival time, higher = longer survival. The gist of the method: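 Mice carrying the transplanted tumor received test compound or vehicle. Survival was recorded in each group, and the value is the treated-group measurement divided by that of the vehicle-treated control group.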

The mark [1] stands for this setting: dose: 25.0 mg/kg/injection, schedule: Q01DX005 (ip), vehicle: Klucel (hydroxypropylcellulose) (HPC).
[2] abbreviates: dose: 50.0 mg/kg/injection, schedule: Q01DX005 (ip), vehicle: Klucel (hydroxypropylcellulose) (HPC).
The mark [3] stands for this setting: dose: 100.0 mg/kg/injection, schedule: Q01DX005 (ip), vehicle: Klucel (hydroxypropylcellulose) (HPC).
Where [4] appears, read: dose: 200.0 mg/kg/injection, schedule: Q01DX005 (ip), vehicle: Klucel (hydroxypropylcellulose) (HPC).
[5] abbreviates: dose: 50.0 mg/kg/injection, schedule: Q01DX005 (ip), vehicle: saline with Tween-80.
Setting [6] is: dose: 100.0 mg/kg/injection, schedule: Q01DX005 (ip), vehicle: saline with Tween-80.
Setting [7] is: dose: 200.0 mg/kg/injection, schedule: Q01DX005 (ip), vehicle: saline with Tween-80.
[8] abbreviates: dose: 50.0 mg/kg/injection, schedule: Q01DX009 (ip), vehicle: Klucel (hydroxypropylcellulose) (HPC).
Where [9] appears, read: dose: 100.0 mg/kg/injection, schedule: Q01DX009 (ip), vehicle: Klucel (hydroxypropylcellulose) (HPC).
The mark [10] stands for this setting: dose: 200.0 mg/kg/injection, schedule: Q01DX009 (ip), vehicle: Klucel (hydroxypropylcellulose) (HPC).
Where [11] appears, read: dose: 12.5 mg/kg/injection, schedule: Q01DX009 (ip), vehicle: saline.
[12] abbreviates: dose: 25.0 mg/kg/injection, schedule: Q01DX009 (ip), vehicle: saline.
[13] abbreviates: dose: 50.0 mg/kg/injection, schedule: Q01DX009 (ip), vehicle: saline.

For the molecule `COc1cc(CCc2cc(OC)c(OC)c(OC)c2)cc(OC)c1OC`, the T/C runs as follows: (dose: 31.25 mg/kg/injection, schedule: Q01DX009 (ip), vehicle: saline + Tween-80 + alcohol) 98 % of control; (dose: 62.5 mg/kg/injection, schedule: Q01DX009 (ip), vehicle: saline + Tween-80 + alcohol) 91 % of control; (dose: 125.0 mg/kg/injection, schedule: Q01DX009 (ip), vehicle: saline + Tween-80 + alcohol) 102 % of control; (dose: 250.0 mg/kg/injection, schedule: Q01DX009 (ip), vehicle: saline + Tween-80 + alcohol) 87 % of control.
Take `CCCN(CCC)CCC(=O)OCC`: the T/C (dose: 100.0 mg/kg/injection, schedule: Q04DX003 (ip), vehicle: saline with Tween-80) is 118 % of control; the T/C (dose: 200.0 mg/kg/injection, schedule: Q04DX003 (ip), vehicle: saline with Tween-80) is 100 % of control; the T/C (dose: 400.0 mg/kg/injection, schedule: Q04DX003 (ip), vehicle: saline with Tween-80) is 100 % of control.
As for `CC(=O)Nc1ccccc1CO`, the T/C was 97 % of control under setting [1], 100 % of control under setting [2], 100 % of control under setting [3] and 100 % of control under setting [4].
Consider `CCOC(=O)/C(Nc1ccc(C(=O)OCC)cc1)=C1\COc2nc(N)[nH]c(=O)c2N1`, for which the T/C reads like this: under setting [5], 93 % of control; under setting [6], 91 % of control; under setting [7], 107 % of control.
For the molecule `O=S1(=O)CC(N2CCOCC2)C2=C(O1)c1ccccc1OCC2` (centres undefined), the T/C by setting is: under setting [2], 98 % of control; under setting [3], 97 % of control; under setting [4], 88 % of control.
`CC1CCC2(C(=O)O)CCC3(C)C(=CCC4C5(C)CCC(OC(=O)/C=C/c6ccccc6)C(C)(C)C5CCC43C)C2C1C` (centres undefined): the T/C reads like this: (dose: 7.44 mg/kg/injection, schedule: Q01DX009 (ip), vehicle: Klucel (hydroxypropylcellulose) (HPC)) 107 % of control; (dose: 14.88 mg/kg/injection, schedule: Q01DX009 (ip), vehicle: Klucel (hydroxypropylcellulose) (HPC)) 100 % of control; (dose: 29.76 mg/kg/injection, schedule: Q01DX009 (ip), vehicle: Klucel (hydroxypropylcellulose) (HPC)) 101 % of control.
On to `N#CC1=C(O)/C(=C\c2ccc(Cl)c(Cl)c2)N=C1N`, for which the T/C was 89 % of control under setting [5], 90 % of control under setting [6] and 97 % of control under setting [7].
Consider `CCOC(=O)CCCn1nc(-c2ccc(Cl)cc2)c(-c2ccc(Cl)cc2)c(C#N)c1=O`, for which the T/C (dose: 100.0 mg/kg/injection, schedule: Q04DX002 (ip), vehicle: saline with Tween-80) is 123 % of control.
As for `C=CC(C)(C)C1=CC(=O)C(OC)=CC1=O`, the T/C under setting [2] was 100 % of control, the T/C under setting [3] was 103 % of control and the T/C under setting [4] was 100 % of control.
Consider `O=[N+]([O-])O.[Ga]`, for which the T/C is, setting by setting: (dose: 6.25 mg/kg/injection, schedule: Q01DX005 (ip), vehicle: saline) 100 % of control; (dose: 6.25 mg/kg/injection, schedule: Q01DX010 (ip), vehicle: saline) 100 % of control; (dose: 12.5 mg/kg/injection, schedule: Q01DX005 (iv), vehicle: saline) 99 % of control; (dose: 12.5 mg/kg/injection, schedule: Q01DX010 (ip), vehicle: saline) 100 % of control; (dose: 25.0 mg/kg/injection, schedule: Q01DX005 (ip), vehicle: saline) 100 % of control and 123 % of control; (dose: 25.0 mg/kg/injection, schedule: Q01DX005 (iv), vehicle: saline) 96 % of control. Also, the T/C runs as follows: (dose: 25.0 mg/kg/injection, schedule: Q01DX010 (ip), vehicle: saline) 118 % of control; (dose: 50.0 mg/kg/injection, schedule: Q01DX005 (iv), vehicle: saline) 98 % of control and 91 % of control; (dose: 50.0 mg/kg/injection, schedule: Q01DX010 (ip), vehicle: saline) 100 % of control.
`N#CC12CCCCC1CCC1(C2)OCCO1` (centres undefined): the T/C was 111 % of control under setting [8], 100 % of control under setting [9] and 108 % of control under setting [10].
With `COc1cc2c(cc1O)c(O)cc1c3cc(OC)c(OC)cc3c[n+](C)c21`, the T/C runs as follows: under setting [1], 152 % of control; under setting [2], 153 % of control and 160 % of control; under setting [4], 156 % of control and 159 % of control.
As to `O=C(Nc1cc(Cl)c(Cl)cc1Cl)OCc1ccc2c(c1)OCO2`, the T/C was 100 % of control (dose: 15.0 mg/kg/injection, schedule: Q01DX005 (ip), vehicle: saline with Tween-80); 94 % of control (dose: 30.0 mg/kg/injection, schedule: Q01DX005 (ip), vehicle: saline with Tween-80); 89 % of control and 91 % of control (dose: 60.0 mg/kg/injection, schedule: Q01DX005 (ip), vehicle: saline with Tween-80).
As for `C=CCSc1cccc2ccccc12`, the T/C was 100 % of control (dose: 50.0 mg/kg/injection, schedule: Q01DX009 (ip), vehicle: saline with Tween-80) and 109 % of control (dose: 100.0 mg/kg/injection, schedule: Q01DX009 (ip), vehicle: saline with Tween-80).
Regarding `O=C1C2C3C=CC(C2C(=O)N1COP(=O)(O)O)C1C2C(=O)N(COP(=O)(O)O)C(=O)C2C31` (centres undefined), the T/C reads like this: (dose: 20.0 mg/kg/injection, schedule: Q01DX009 (ip), vehicle: water) 112 % of control; (dose: 40.0 mg/kg/injection, schedule: Q01DX009 (ip), vehicle: water) 112 % of control; (dose: 80.0 mg/kg/injection, schedule: Q01DX009 (ip), vehicle: water) 112 % of control and 90 % of control; (dose: 160.0 mg/kg/injection, schedule: Q01DX009 (ip), vehicle: water) 165 % of control; (dose: 240.0 mg/kg/injection, schedule: Q01DX009 (ip), vehicle: water) 152 % of control.
On to `O=C1OCc2cnccc21`, for which the T/C reads like this: (dose: 8.75 mg/kg/injection, schedule: Q01DX005 (ip), vehicle: Klucel (hydroxypropylcellulose) (HPC)) 98 % of control; (dose: 17.5 mg/kg/injection, schedule: Q01DX005 (ip), vehicle: Klucel (hydroxypropylcellulose) (HPC)) 100 % of control; (dose: 35.0 mg/kg/injection, schedule: Q01DX005 (ip), vehicle: Klucel (hydroxypropylcellulose) (HPC)) 97 % of control.
As to `CNC(=O)OC1CC2CCCCC2C([N+](C)(C)C)C1` (centres undefined), the T/C is 105 % of control under setting [11]; 112 % of control under setting [12]; 100 % of control and 106 % of control under setting [13].
On to `O=C1OS(=O)(=O)c2cc3c(cc21)C1C(C2C3C3(Cl)C(Cl)=C(Cl)C2(Cl)C3(Cl)Cl)C2(Cl)C(Cl)=C(Cl)C1(Cl)C2(Cl)Cl` (centres undefined), for which the T/C is, setting by setting: under setting [11], 97 % of control; under setting [12], 100 % of control; under setting [13], 100 % of control and 104 % of control; (dose: 100.0 mg/kg/injection, schedule: Q01DX009 (ip), vehicle: saline) 107 % of control.
Take `CCOC(=O)CNC(=O)Nc1ccc(S(=O)(=O)Nc2nc(C)cc(C)n2)cc1`: the T/C was 102 % of control under setting [8], 100 % of control under setting [9] and 100 % of control under setting [10].
For the molecule `C=CCNSc1ccccc1`, the T/C runs as follows: (dose: 12.5 mg/kg/injection, schedule: Q01DX009 (ip), vehicle: Klucel (hydroxypropylcellulose) (HPC)) 112 % of control; (dose: 25.0 mg/kg/injection, schedule: Q01DX009 (ip), vehicle: Klucel (hydroxypropylcellulose) (HPC)) 109 % of control.
For `O=C1c2ccccc2C(=O)c2c(O)c(NCCCN(CCO)CCO)cc(O)c21`, the T/C is 101 % of control under setting [5], 109 % of control under setting [6] and 113 % of control under setting [7].
Regarding `Cc1ccc(S(=O)(=O)OC2=C3OC(=O)C4(C3C=CC=C2)C2C=CC=CC24)cc1` (centres undefined), the T/C (dose: 100.0 mg/kg/injection, schedule: Q01DX001 (ip), vehicle: saline with Tween-80) is 96 % of control; the T/C (dose: 200.0 mg/kg/injection, schedule: Q01DX001 (ip), vehicle: saline with Tween-80) is 93 % of control; the T/C (dose: 400.0 mg/kg/injection, schedule: Q01DX001 (ip), vehicle: saline with Tween-80) was 90 % of control.
`CCOC(=O)c1ccc(NC(=O)Nc2nnc(C)c(C)n2)cc1`: the T/C is, setting by setting: under setting [8], 92 % of control; under setting [9], 88 % of control; under setting [10], 88 % of control.
Take `CC(=O)/C(C)=C/O`: the T/C reads like this: (dose: 50.0 mg/kg/injection, schedule: Q01DX005 (ip), vehicle: saline) 98 % of control; (dose: 100.0 mg/kg/injection, schedule: Q01DX005 (ip), vehicle: saline) 104 % of control; (dose: 200.0 mg/kg/injection, schedule: Q01DX005 (ip), vehicle: saline) 104 % of control.
